Reference: patent US20080171710A1, “The Redox/Fyn/c-Cbl Pathway” (priority 2007, published 2008)

Key:
O-2A/OPCs [1] = assay: In vitro BrdU incorporation assay; format: cell-based, rat
Method: Cell proliferation was assessed by bromodeoxyuridine (BrdU) incorporation and by using the mouse anti-BrdU mAb IgGl (1:100; Sigma) to label dividing cells. Stained cells on cover slips were rinsed two times in 1×PBS, counterstained with 4′6-diamidino-2-phenylindole (DAPI; Molecular Probes, Eugene, Oreg., United States) and mounted on glass slides with Fluoromount (Molecular Probes). Staining against surface proteins was performed on cultures of living cells or on cells fixed with 2% paraformaldehyde. Staining with intracellular antibodies was performed by permeabilizing cells with ice-cold methanol for 4 min or by using 0.5% Triton for 15 mm on 2% parafomaldhyde-fixed cells. Antibody binding was detected with appropriate fluorescent dye-conjugated secondary antibodies at 10 μg/ml (Southern Biotech, Birmingham, Ala., United States) or Alexa Fluor-coupled antibodies at a concentration of 1 μg/ml (Molecular Probes), applied for 20 min. Anti-BrdU monoclonal antibody was obtained from Sigma.

Rho kinase = Rho kinase (Rattus norvegicus, UniProt Q63644); details: concentration of Y27632 used in O-2A/OPCs
Sequence of Rho kinase (Q63644 whole entry): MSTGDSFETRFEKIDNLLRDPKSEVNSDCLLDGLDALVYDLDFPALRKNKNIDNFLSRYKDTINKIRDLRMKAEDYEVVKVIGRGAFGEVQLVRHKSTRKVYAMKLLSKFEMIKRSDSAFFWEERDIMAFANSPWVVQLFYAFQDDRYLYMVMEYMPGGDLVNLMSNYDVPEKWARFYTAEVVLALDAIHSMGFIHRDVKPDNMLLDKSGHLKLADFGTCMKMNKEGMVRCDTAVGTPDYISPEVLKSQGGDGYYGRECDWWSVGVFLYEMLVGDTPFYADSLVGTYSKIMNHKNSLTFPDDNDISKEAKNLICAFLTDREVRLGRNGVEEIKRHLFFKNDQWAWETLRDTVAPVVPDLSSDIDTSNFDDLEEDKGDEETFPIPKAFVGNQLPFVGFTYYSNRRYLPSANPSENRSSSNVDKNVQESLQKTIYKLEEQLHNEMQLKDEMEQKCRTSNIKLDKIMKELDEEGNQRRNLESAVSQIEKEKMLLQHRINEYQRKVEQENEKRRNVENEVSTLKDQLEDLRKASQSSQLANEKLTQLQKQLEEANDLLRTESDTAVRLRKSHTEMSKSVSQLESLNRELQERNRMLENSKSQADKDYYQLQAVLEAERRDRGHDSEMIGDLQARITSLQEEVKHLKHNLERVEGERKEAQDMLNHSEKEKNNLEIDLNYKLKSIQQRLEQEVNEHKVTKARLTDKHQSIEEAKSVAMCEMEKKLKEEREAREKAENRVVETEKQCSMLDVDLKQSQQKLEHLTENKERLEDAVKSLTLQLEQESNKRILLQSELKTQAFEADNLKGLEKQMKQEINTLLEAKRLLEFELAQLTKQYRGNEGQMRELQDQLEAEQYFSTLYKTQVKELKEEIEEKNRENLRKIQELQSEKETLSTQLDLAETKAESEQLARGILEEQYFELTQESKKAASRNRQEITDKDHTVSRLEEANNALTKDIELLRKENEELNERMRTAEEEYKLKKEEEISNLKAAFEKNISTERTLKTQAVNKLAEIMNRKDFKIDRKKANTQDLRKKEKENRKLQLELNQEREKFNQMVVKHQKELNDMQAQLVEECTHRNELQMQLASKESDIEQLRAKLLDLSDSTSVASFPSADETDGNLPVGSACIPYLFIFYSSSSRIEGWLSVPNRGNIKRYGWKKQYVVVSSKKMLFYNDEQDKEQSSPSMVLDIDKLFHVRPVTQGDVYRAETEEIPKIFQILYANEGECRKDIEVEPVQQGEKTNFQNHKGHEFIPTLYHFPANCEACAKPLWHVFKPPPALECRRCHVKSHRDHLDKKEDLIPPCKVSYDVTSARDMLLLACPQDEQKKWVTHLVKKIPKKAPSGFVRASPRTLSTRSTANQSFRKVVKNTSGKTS
Method: Rho kinase activity was quantified using the CycLex Rho-Kinase Assay kit (MBL international, Woburn, Mass., United States) as described. Cells were lysed and about 500 μg of total cell Jysates were immunoprecipitated with anti-ROCK1 antibody (Sigma), and the precipitates were re-suspended with kinase reaction buffer provided in the kit. Rho kinase activities of each sample were assayed using the kit according to the manufacturer's instructions.

O-2A/OPCs [2] = assay: Clonal analysis of division and differentiation; format: cell-based, rat; details: co-exposure with MeHg; 1 mM NAC or PP1
Method: O-2A/OPCs purified from P7 rat optic nerve were plated in. poly-L-lysine-coated 25-cm^2 flasks at clonal density with DMBM medium in the presence of 10-ng/ml PDGF as previously described. After 24-h recovery, cells were treated with different toxicants, each for 3 d, until visual inspection and immunostaining was performed. NAC was added 1 h before exposure to other toxicants for NAC pretreatment, and NAC co-exists throughout the culture period. The numbers of O-2A/OPCs and oligodendrocytes in each clone were determined by counting under fluorescent microscope. […] Experiments were performed in triplicate in at least two independent experiments.

Erk1/2 = format: cell-based, rat
Method: (§1) Cells were deprived of PDGF-AA for 5 h before re-exposure to PDGF-AA (10 ng/ml) for 1 h for Western blot or 6 h for luciferase assays of pathway activation. Transient transfection was performed using Fugene6 (Roche, Basel, Switzerland ) transfection solution according to the manufacturer's protocol. For the luciferase assay, cells seeded in 12-well plates were transfected with a reporter plasmid SRE-Luc(firefly) or NF-κB-Luc(firefly) (BD-Clontech, Palo Alto, Calif., United States) and an internal control plasmid pRLSV40-LUC. Analyses of luciferase activity were performed according to the protocol of the Dual Luciferase Assay System (Promega, Madison, Wis., United States), which uses an internal control of Renilla luciferase for quantification, and relative light units were measured using a luminometer.
(§2) Anti-phosphorylated Erk monoclonal, anti-Erk monoclonal, anti-TrkC polyclonal anti-Fyn polyclonal, anti-EGFR polyclonal, anti-c-Met polyclonal, anti-phospho-tyrosine monoclonal, and anti-PDGFRα polyclonal antibodies were obtained from Santa Cruz Biotechnology (Santa Cruz, Calif., United States). Anti-c-Cbl monoclonal antibody was obtained from BD PharMingen (San Diego, Calif., United States). Anti-phosphorylated Akt monoclonal and anti-Akt polyclonal antibodies were obtained from Cell Signaling Technology (Beverly, Mass., United States). Anti-phosphorylated PDGPRα polyclonal antibody was obtained from Biosource (Carlsbad, Calif., United States). The cell culture samples were collected and lysed in RAPI buffer, whereas dissected tissue samples were sonicated in RAPI buffer. Samples were resolved on SDS-PAGE gels and transferred to PVDF membranes (PerkinElmer Life Science. Wellesley, Mass., United States), After being blocked in 5% skim milk in PBS containing 0.1% Tween 20, membranes were incubated with a primary antibody, followed by incubation with an HRP-conjugated secondary antibody (Santa Cruz Biotechnology). Membranes were visualized using Western Blotting Luminol Reagent (Santa Cruz Biotechnology). All analyses of signaling pathway components were conducted in the presence of ligand for the receptor pathway under analysis (either PDGF-AA for PDGFRα, NT-3 or TrkC, HGF for c-Met, or EGF for EGFR).

PDGFRα [3] = assay: PDGFRα phosphorylation (Western blot, anti-PDGFRα(pY742)); format: cell-based, rat; details: co-exposure with MeHg
Text: The cells were then collected and lysed for Western blotting. […] Cells were lysed for Western blot analysis using anti-PDGFRα(pY742) antibody. The membranes were de-probed and then re-probed with antibody against total PDGFRα and anti-β-tubulin antibody. […]
as §2

PDGFRα [4] = format: cell-based, rat; details: for effect on MeHg-induced reductions in levels of PDGFRα: together with MeHg; for effect on Pb- and paraquat-induced reductions in levels of PDGFRα: together with Pb (1 μM) or paraquat (5 μM)
Fyn [5] = target: T1, Fyn (Rattus norvegicus, UniProt Q62844); format: cell-based
T1 construct: 250 μg of total cell lysates were immunoprecipitated with anti-Fyn antibody; endogenous in cells; host or cells: primary rat O-2A/OPCs
T1 sequence (Q62844 whole entry): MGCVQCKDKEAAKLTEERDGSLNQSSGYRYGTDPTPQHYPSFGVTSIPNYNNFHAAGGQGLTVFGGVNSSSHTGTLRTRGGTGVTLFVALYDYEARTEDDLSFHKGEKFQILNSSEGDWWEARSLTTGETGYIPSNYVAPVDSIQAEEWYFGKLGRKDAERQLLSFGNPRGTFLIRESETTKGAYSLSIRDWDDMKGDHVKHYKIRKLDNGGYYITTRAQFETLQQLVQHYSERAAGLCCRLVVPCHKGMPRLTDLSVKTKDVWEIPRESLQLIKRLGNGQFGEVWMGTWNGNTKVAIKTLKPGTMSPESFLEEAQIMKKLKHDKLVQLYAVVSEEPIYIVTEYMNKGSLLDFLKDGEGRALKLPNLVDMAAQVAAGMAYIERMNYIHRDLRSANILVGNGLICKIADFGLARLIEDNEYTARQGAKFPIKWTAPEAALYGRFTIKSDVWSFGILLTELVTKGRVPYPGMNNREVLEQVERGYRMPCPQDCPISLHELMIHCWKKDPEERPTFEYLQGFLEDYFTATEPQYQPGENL
Method: Fyn kinase activity was quantified using the Universal Tyrosine Kinase Assay Kit (Takara, Madison, Wis., United States). O-2A/OPCs exposed to different treatments were solubilized with an equal volume of the extraction buffer provided with the kit for 15 min, and the resulting lysates were centrifuged at 13,000×g for 15 min at 4° C.; 250 μg of total cell lysates were immunoprecipitated with anti-Fyn antibody (Santa Cruz Biotechnology). Following immunoprecipitation, Fyn immune complexes were washed four times with extraction buffer, and then Fyn kinase activities of each sample were assayed using the kit according to the manufacturer's instructions.

c-Cbl [6] = format: cell-based, rat
Method: (§3) For the co-immunoprecipitation assay, anti-c-Cbl monoclonal antibody (BD PharMingen) or anti-PDGFRα polyclonal antibody (Santa Cruz Biotechnology) was added to the pre-cleared cell lysates (250 μg of total protein), and the mixtures were gently rocked for 2 h at 4° C. A total of 30 μl of protein A/G agarose was then added to the mixture followed by rotating at 4° C. overnight. The protein A/G agarose was then spun down and washed thoroughly three times. The precipitates were resolved on an 8% SDS-PAGE gel and then were subjected to Western blot analysis using an anti-p-Tyr (for c-Cbl phosphorylation assay) or ubiquitin (for PDGFR ubiquitylation assay) antibody (Santa Cruz Biotechnology).

PDGFRα [7] = assay: PDGFR ubiquitylation (immunoprecipitation assay); format: cell-based, rat; details: co-exposure with MeHg
Method: as §3

MDA-MB-231 cell = MDA-MB-231 cell division by BrdU incorporation; format: cell-based; details: NAC 1 mM or PP1 200 nM with 20 μM tamoxifen, 48 hours
Method: It has been reported that c-Cbl induced down-regulation of EGFR is disabled in cancer cells (Hirsch DS, Shen. Y, Wu WJ, (2006) Cancer Res. Apr 1;66(7):3523-30). Thus, growth and motility inhibition of breast cancer cells by EGFR degradation is correlated with inaetivation of Cdc42. […] Cells were cultured in phenol red-free growth media and exposed to TMX (0, 1 μM, 10 μM, 20 μM and 50 μM) for 48 hours, with or without 1 mM NAC. In FIG. 22C. MDA-MB-231 cell division was analyzed by BrdU incorporation analysis. […] Percentage of Brdu+ cells from DAPI+ cells was determined in each sample.

cancer cells = assay: Cancer cell viability (MTT assays), FIG. 22; format: cell-based; details: TMX 1-50 μM, 48 hours
Akt = format: cell-based, rat
Method: as §1, §2

EGFR = format: cell-based, rat
Text: as §2

TrkC = format: cell-based, rat
Text: as §2

c-Met = format: cell-based, rat
Text: as §2

O-2A/OPCs [8] = assay: MTT+ cells in EtOH-exposed O-2A/OPCs; format: cell-based, rat; details: cells infected with empty virus; 0.5% EtOH, 72 hrs
Method: Twenty-four hr after transfection, medium was changed into DMEM/F12(SATO-) supplemented with 10 ng/ml PDGF-AA. Virus supernatant was collected forty-eight hr post-transfection, filtered through 0.45 um filter to remove non-adherent cells and cellular debris, frozen in small aliquots on dry ice, and stored at −80° C. Twenty-four hr prior to infection with either DN-c-Cbl virus or backbone virus, O-2A cells were seeded. The following day, the culture media was aspirated and replaced with virus supernatant diluted 1:1 in the O-2A growth media. Media was then changed into O-2. A growth media after eight hr or overnight. Twenty-four hr after infection, the cells were collected by trypsinization and reseeded in the selective media (growth media+200 ng/ml puromycin). By the next day, all non-infected cells were floating and presumably dead or dying. The infected cells were allowed to proliferate for two days, and then collected and re-seeded for these experiments.

Fyn [9] = format: cell-based, rat; details: EtOH exposure 30 min
Fyn [10] = assay: Fyn protein level after RNAi (Western blot); format: cell-based, rat; details: expression of RNAi construct
Text: (§4) Anti-phosphorylated Erk monoclonal, anti-Erk monoclonal, anti-TrkC polyclonal anti-Fyn polyclonal, anti-EGFR polyclonal, anti-c-Met polyclonal, anti-phospho-tyrosine monoclonal, and anti-PDGFRα polyclonal antibodies were obtained from Santa Cruz Biotechnology (Santa Cruz, Calif., United States). Anti-c-Cbl monoclonal antibody was obtained from BD PharMingen (San Diego, Calif., United States). Anti-phosphorylated Akt monoclonal and anti-Akt polyclonal antibodies were obtained from Cell Signaling Technology (Beverly, Mass., United States). Anti-phosphorylated PDGPRα polyclonal antibody was obtained from Biosource (Carlsbad, Calif., United States). The cell culture samples were collected and lysed in RAPI buffer, whereas dissected tissue samples were sonicated in RAPI buffer. […]
(§5) siRNA target sites were selected by scanning the cDNA sequence for AA dinucleotides via siRNA target finder (Ambion, Austin, Tex., United States). Those 19-nucleotide segments that start with G immediately downstream of AA were recorded and then analyzed by BLAST search to eliminate any sequences with significant similarity to other genes. […]

c-Cbl [11] = assay: c-Cbl protein level after RNAi (Western blot); format: cell-based, rat; details: expression of RNAi construct
Text: as §4, §5

[12] = NAC 1 mM, PP1 100 nM or ICI 182,780 200 nM with TMX

Molecule: C[C@@H](N)[C@H]1CC[C@H](C(=O)Nc2ccncc2)CC1 [Y27632]
- effect on MeHg-associated suppression of BrdU incorporation / cell division (O-2A/OPCs [1]; together with MeHg): did not alter
- Rho kinase activity (Rho kinase): successfully inhibited

Molecule: Cc1ccc(-c2nn(C(C)(C)C)c3ncnc(N)c23)cc1 [PP1]
- effect on TMX effect on cell proliferation (O-2A/OPCs [1]; with TMX, 2 days): blocked
- effect on MeHg-induced suppression of cell division at the clonal level (O-2A/OPCs [2]): blocked
- effect on Aβ(1-42) suppression of PDGF-mediated Erk1/2 phosphorylation (Erk1/2; co-exposure with Aβ(1-42)): blocked
- effect on MeHg-associated suppression of Erk1/2 phosphorylation (Erk1/2; co-treatment with MeHg): blocked
- effect on MeHg-induced suppression of PDGFRα phosphorylation (PDGFRα [3]): protected
- effect on TMX-induced reductions in levels of PDGFRα (PDGFRα [4]; [12]): blocked
- effect on Aβ-induced reduction in PDGFRα levels (PDGFRα [4]; co-exposure with Aβ): blocked
- effect on MeHg-induced reductions in levels of PDGFRα (PDGFRα [4]): blocked
- effect on Pb- and paraquat-induced reductions in levels of PDGFRα (PDGFRα [4]): prevented
- effect on TMX-induced activation of Fyn (Fyn [5]; [12]): blocked
- effect on MeHg-induced Fyn activation (Fyn [5]; added 1 h before MeHg): blocked
- effect on Pb- and paraquat-induced Fyn activation (Fyn [5]; added 1 h before Pb or paraquat): prevented
- effect on TMX-induced activation of c-Cbl (c-Cbl [6]; [12]): blocked
- effect on MeHg-induced c-Cbl phosphorylation (c-Cbl [6]; added 1 h before MeHg): blocked
- effect on Aβ-induced increase in phosphorylated c-Cbl (c-Cbl [6]; co-exposure with Aβ): blocked
- levels of ubiquitylated PDGFRα in MeHg-treated cells (PDGFRα [7]): marked reduction
- rescue from tamoxifen effect on cell division (MDA-MB-231 cell): did not result in any rescue effect
- effect on TMX effects on cancer cells (cancer cells): not blocked

Molecule: CCO [EtOH, ethanol]
- PDGF-induced phosphorylation of Akt (Akt): suppression
- PDGF-induced phosphorylation of Erk1/2 (Erk1/2): suppression
- levels of PDGFRα (PDGFRα [4]): decreased levels
- levels of EGFR (EGFR): decreased levels
- levels of TrkC (TrkC): unaltered
- levels of c-Met (c-Met): decreased levels
- c-Cbl phosphorylation (c-Cbl [6]): caused c-Cbl phosphorylation
- decrease in the proportion of cells that were MTT+ (O-2A/OPCs [8]): ~25%
- Fyn phosphorylation (Fyn [9]): caused Fyn phosphorylation

B1: Fyn-RNAi: Fyn-specific siRNA construct, SEQ ID NO: 1 and 2 (nucleic acid)
chain 1: GTTTGCTCGACTTCTTAAATTCAAGAGATTTAAGAAGTCGAGCAAACTTTTTT
chain 2: AATTAAAAAAGTTTGCTCGACTTCTTAAATCTCTTGAATTTAAGAAGTCGAGCAAACGGCC
modifications: expressed or natural sequence
- effect on MeHg-induced reductions in levels of PDGFRα (PDGFRα [4]): protected
- effect on Pb- and paraquat-induced reductions in levels of PDGFRα (PDGFRα [4]): prevented
- levels of Fyn protein (Fyn [10]): caused a reduction
- levels of c-Cbl protein (c-Cbl [11]): had no effects
